US12514866B2, “Method for treating cancer” (National Taiwan University, priority 2021, dated 2026)
Entries after “also recorded” stand apart in the source; their conditions may differ.

What was measured:
A549 lung cancer cells = assay: Real-time impedance (ECIS) monitoring of γδ T cell killing; details: low dose
Experimental: In addition, real-time monitoring of γδ T-mediated killing of cancer cells was performed using the Electric Cell-Substrate Impedance Sensing (ECIS) monitoring system with an 8W10E+ culture chamber (Applied Biophysics). Mock or DAC-treated cancer cells were cultured in the chamber at 37° C. overnight until the cancer cells were fully attached to the bottom of the wells. Following the addition of γδ T cells, the detachment of cancer cells indicating cell death was recorded in real-time using multiple frequency capture with the ECIS software. Relative impendence at the time of γδ T cell addition was used for between-sample normalization.

[1] = system: A549 human lung cancer cells; assay: SILAC-based quantitative surface proteomics of decitabine-treated cells; type: cell-based; details: A549, both D3 and D3R3, 100 nM
Experimental: (§1) For drug treatment experiments, cells were cultured with 100 nM decitabine (DAC; A3656, Sigma-Aldrich) for three days with daily change of complete medium and drug replenishment, followed by 3 to 4 days of cell recovery in the decitabine-free medium. To block the DAC's effect on immune synapse formation via actin cytoskeleton reorganization, the DAC-pretreated (D3R3) cells were treated with 1 μg/mL cytochalasin B (Cyto B; C6762, Sigma-Aldrich) for 1.5 hours prior to coculture with γδ T cells.
(§2) For quantitative mass spectrometry analysis, lung cancer cells were cultured for at least seven cell doublings in SILAC RPMI medium (88365, Thermo Fisher Scientific) supplemented with 10% FBS and heavy isotope-labeled amino acids (L-Lysine 13C6, L-Arginine 13C6) (CLM-2247-H-1, CLM-2265-H-1, Cambridge Isotope Laboratories). DAC-treated cells grown in the regular medium were considered as SILAC light counterparts.
(§3) Cancer cells (around 1.5×10^7 cells) were grown in a 15-cm culture dish and washed with ice-cold PBS (21040CM, Corning) before the labeling. […] The protein concentration of the supernatants was determined using Pierce 660 nm Protein Assay Reagent Kit (22660, Thermo Fisher Scientific) supplemented with Ionic Detergent Compatibility Reagent (22663, Thermo Fisher Scientific). […]

[2] = system: A549, H1299 and CL1-0 human lung cancer cell lines; assay: SILAC-based surface proteomics compared across cell lines; details: D3R3, A549, H1299, CL1-0
Experimental: as §1, §2, §3

H1299 lung cancer cells = assay: Immunofluorescence imaging of immune synapses between cancer and γδ T cells; type: cell-based, human
Experimental: as §1
Cancer and γδ T cells were spun down onto poly-L-lysine coated coverslips by using a Cyto-Tek table-top cytofuge at 500 rpm for 5 minutes (Sakura Scientific) before fixation with ice-cold methanol or 4% (w/v) paraformaldehyde in PBS for 10 minutes. The fixed samples were blocked in detergent-free blocking solution [1% normal donkey serum (ab7475, abcam) and 3% BSA in PBS] without membrane permeabilization by detergents. Subsequently, cells were incubated with primary antibodies diluted in the blocking solution for 1 hour in a moist chamber at room temperature and washed with PBS. Labeling of fluorescent secondary antibodies at 1:200 dilution in PBS was carried out in the blocking buffer for 1 hour at room temperature. After PBS washing, cell nuclei were stained with Hoechst 33342 or DAPI (62248, Thermo Fisher Scientific) in PBS. Finally, the samples were washed with PBS and mounted on the slides. All slides were examined under an epifluorescence microscope EVOS FLc (Invitrogen), and the images were analyzed using the ImageJ software. For the visualization of immune synaptic proteins, cells were imaged with a high-resolution confocal microscope (LSM780, Zeiss) with a 63×oil objective and analyzed with the confocal software ZEN (Zeiss).

[3] = DAC D3R3 plus 1 μg/mL Cyto B 1.5 hours

SMILES: Nc1ncn([C@H]2C[C@H](O)[C@@H](CO)O2)c(=O)n1 [DAC, decitabine]
- Cytotoxicity / cell viability with DAC alone (A549 lung cancer cells): does not cause significant cytotoxicity; also recorded: minimal effects on cell viability
- Number of proteins with sustained upregulation by at least 1.4-fold [1]: 314
- Number of proteins commonly upregulated in all three lung cancer cell lines [2]: 431

SMILES: C=C1[C@@H](C)[C@H]2[C@H](Cc3ccccc3)NC(=O)[C@]23OC(=O)/C=C/[C@H](O)CCC[C@@H](C)C/C=C/[C@H]3[C@@H]1O [cytochalasin B]
- DAC-induced F-actin clustering and pTyr signaling at immune synapses (H1299 lung cancer cells; [3]): abolished
- ICAM-1 expression at immune synapses (H1299 lung cancer cells; [3]): minimal effects
- DAC effects on width of the synaptic cleft (H1299 lung cancer cells; DAC plus Cyto B): diminished
- DAC's enhancing effects on immune synapse formation (H1299 lung cancer cells; DAC plus Cyto B): significantly counteracted
